Consider 25 compounds from patent US20080318943A1, “Compounds and Uses Thereof - 848” (ASTRAZENECA AB, priority 2007, published 2008).

A word on the Ki: it is a dissociation constant, usually derived from enzyme kinetics or from competition with a known ligand. High values mean a looser hold on the target, low ones a stronger hold on the target.

Test [1] addresses T1, GABAA receptor α1β2γ2 (Homo sapiens, UniProt P14867+P18507).
T1 construct: expressed in transfected cells; host or cells: Xenopus laevis oocytes injected with cRNA
The test is described as follows: Two-electrode voltage-clamp potentiation of GABA EC10 current in Xenopus oocytes, GABAA1. It is filed as cell-based. Conditions: percentage potentiation of GABA EC10 current divided by that of diazepam. As for the experimental part:
GABAA receptors were heterologously expressed in Xenopus oocytes by injecting cRNA corresponding to human α1, α2, α3, α5, β2, P3 and γ2 subunits of the GABAA receptor genes. The specific subunit combinations (subtypes) were as follows: α1β2γ2, α2β3γ2, α3β3γ2, and α5β3γ2. The EC10 of GABA is approximated for each cell. Stability of GABA-mediated (EC10) current is established. Modulatory effect of test compound is determined and compared across subtypes. […] Thus, the assay can characterize modulatory effects and determine subtype selectivity of test compounds on major subtypes of GABAA receptors.
Xenopus laevis frogs (Xenopus I, Kalamazoo, Mich.) were anesthetized using 0.15% tricaine. Surgically removed ovarian lobes were teased out in OR2 solution (82 NaCl, 2.5 KCl, 5 HEPES, 1.5 NaH2PO4, 1 MgCl2, 0.1 EDTA, in mM, pH 7.4). The oocytes were defolliculated by incubation in 25 mL OR2 containing 0.2% collagenase 1A (SIGMA) two times for about 60 minutes on a platform shaker and stored in Leibovitz's L-15 medium. Oocytes were injected the following day in 0.5× Leibovitz's L-15 medium containing […] gentamycin, 10 units/ml penicillin, and […] streptomycin.
Capped cRNAs from the linearized vectors containing human α1, β2 and γ2 subunits of the GABAA receptor genes were mixed in ratio of […]. Oocytes were injected with 25-50 nL of mixed RNA with an appx molar ratio for α1, β2, and γ2 as 1:1:10. Oocyte recordings were done 2-10 days after injection. The same methods apply to subtypes derived from α2β3γ2, α3β3γ2, and α5β3γ2, except for 1:1:1 ratio was used for α, β, and γ subunits.
All measurements were done in a medium containing ND-96 (96 NaCl, 2 KCl, 1.8 CaCl2.2H2O, 1 MgCl2.6H2O, 5 HEPES, in mM, pH 7.5). Two-electrode voltage-clamp recording was carried out using OpusXpress amplifier (Axon Instruments, Foster City, Calif.), which allows simultaneous recording from 8 oocytes. Oocytes were impaled with two electrodes of 1-2 MΩ tip resistance when filled with 3M KCl. Recordings were begun when membrane potential became stable at potentials negative to −50-−60 mV. Membrane potential was held at −60 mV. […] The concentration of GABA corresponded to the EC10 value calculated for each oocyte. The modulator pulses started 30 s before the GABA pulse so as to allow preincubation with the modulator. A set of 3 pulses with just GABA without modulator was given prior to the modulator-containing pulses to define the baseline GABA response. Two oocytes per each experiment were dedicated to observe the effect of diazepam on GABA response to ensure the presence of γ2 subunit in the GABAA pentameric complex, which imparts diazepam sensitivity to the complex.
Current amplitude (i) was measured from baseline to peak using Clampfit (Axon Inst., Foster City, Calif.). Potentiation was calculated as percent change from the baseline GABA current flux 100×(imod/icontrol)−1) where imod=current mediated by modulator+GABA and icontrol=current mediated by GABA alone. […] Similarly, a value of −50% potentiation means the presence of modulator caused a 50% decrease in the control current. Various other data shown here were fitted and plotted using GraphPad Prism (GraphPad Software, Inc. San Diego, Calif.). The percentage potentiation was converted to relative potentiation by dividing it with percentage potentiation value obtained from the same assay with diazepam as a control.

The target in test [2] is T2, GABAA2 receptors (α2, β3, γ2 receptor subunits transfected into Sf9 cells) (Homo sapiens, UniProt P18507+P47869).
T2 construct: host or cells: Sf9 cells (membranes)
T2 sequence (P47869 29-451): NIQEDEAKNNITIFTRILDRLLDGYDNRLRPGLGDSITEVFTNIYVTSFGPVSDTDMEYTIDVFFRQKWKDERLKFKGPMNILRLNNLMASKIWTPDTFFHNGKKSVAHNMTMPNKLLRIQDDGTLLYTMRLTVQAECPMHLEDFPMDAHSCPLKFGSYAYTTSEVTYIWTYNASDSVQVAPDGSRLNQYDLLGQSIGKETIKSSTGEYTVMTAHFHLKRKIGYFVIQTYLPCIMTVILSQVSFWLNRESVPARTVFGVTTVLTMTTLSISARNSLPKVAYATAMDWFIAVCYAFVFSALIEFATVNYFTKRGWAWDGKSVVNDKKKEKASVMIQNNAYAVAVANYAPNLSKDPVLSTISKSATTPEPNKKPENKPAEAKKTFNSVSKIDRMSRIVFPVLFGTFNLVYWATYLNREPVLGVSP
T2 sequence (P28472 26-473 partner): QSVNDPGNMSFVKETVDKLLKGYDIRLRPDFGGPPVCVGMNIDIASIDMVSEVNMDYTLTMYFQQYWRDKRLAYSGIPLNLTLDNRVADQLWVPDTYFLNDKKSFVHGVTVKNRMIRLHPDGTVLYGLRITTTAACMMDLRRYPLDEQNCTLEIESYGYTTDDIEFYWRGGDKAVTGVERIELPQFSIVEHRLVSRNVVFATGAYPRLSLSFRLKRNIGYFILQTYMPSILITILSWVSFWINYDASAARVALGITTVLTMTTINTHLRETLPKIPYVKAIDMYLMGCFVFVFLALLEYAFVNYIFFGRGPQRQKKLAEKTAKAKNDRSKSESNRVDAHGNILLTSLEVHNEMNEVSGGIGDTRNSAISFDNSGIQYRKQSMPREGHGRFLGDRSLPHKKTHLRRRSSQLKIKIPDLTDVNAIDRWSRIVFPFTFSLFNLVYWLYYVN
T2 sequence (P18507 40-475): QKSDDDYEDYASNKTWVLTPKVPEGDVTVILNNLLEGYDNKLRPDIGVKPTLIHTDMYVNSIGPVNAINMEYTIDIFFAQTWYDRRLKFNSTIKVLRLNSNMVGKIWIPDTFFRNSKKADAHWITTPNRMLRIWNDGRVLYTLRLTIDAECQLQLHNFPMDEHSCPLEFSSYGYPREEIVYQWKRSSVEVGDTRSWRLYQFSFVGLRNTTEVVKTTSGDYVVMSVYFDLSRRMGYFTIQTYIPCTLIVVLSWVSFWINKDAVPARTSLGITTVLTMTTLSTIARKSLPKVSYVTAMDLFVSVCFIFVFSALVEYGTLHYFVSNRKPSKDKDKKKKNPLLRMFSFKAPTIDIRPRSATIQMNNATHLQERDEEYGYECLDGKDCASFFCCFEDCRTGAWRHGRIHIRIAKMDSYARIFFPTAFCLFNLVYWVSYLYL
The test is described as follows: GABAA2 Binding Method ([3H]-Flunitrazepam displacement). Particulars: [3H]-Flunitrazepam ~2 nM, α2β3γ2 Sf9 membranes, 1 hr at 4° C. Put shortly: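 Displacement of [3H]-flunitrazepam (~2 nM in assay) from recombinant human α2β3γ2 receptors in Sf9 membranes; 1 h incubation at 4 °C, harvest by filtration. Values reported as percent of control, IC50 and Ki.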

T1 sequence (P14867 28-456): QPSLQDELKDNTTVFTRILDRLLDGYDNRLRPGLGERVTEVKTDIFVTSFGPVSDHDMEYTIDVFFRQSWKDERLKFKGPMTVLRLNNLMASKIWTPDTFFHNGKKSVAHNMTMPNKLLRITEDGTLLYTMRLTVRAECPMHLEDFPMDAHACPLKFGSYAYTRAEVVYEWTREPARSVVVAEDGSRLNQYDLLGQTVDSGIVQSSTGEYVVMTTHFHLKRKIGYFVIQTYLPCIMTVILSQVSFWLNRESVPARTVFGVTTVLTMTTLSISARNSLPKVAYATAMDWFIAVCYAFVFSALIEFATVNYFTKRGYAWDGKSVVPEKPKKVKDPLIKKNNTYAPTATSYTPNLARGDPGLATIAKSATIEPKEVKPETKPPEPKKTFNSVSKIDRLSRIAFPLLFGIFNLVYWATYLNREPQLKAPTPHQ
T1 sequence (P47870 25-512 partner limits assumed): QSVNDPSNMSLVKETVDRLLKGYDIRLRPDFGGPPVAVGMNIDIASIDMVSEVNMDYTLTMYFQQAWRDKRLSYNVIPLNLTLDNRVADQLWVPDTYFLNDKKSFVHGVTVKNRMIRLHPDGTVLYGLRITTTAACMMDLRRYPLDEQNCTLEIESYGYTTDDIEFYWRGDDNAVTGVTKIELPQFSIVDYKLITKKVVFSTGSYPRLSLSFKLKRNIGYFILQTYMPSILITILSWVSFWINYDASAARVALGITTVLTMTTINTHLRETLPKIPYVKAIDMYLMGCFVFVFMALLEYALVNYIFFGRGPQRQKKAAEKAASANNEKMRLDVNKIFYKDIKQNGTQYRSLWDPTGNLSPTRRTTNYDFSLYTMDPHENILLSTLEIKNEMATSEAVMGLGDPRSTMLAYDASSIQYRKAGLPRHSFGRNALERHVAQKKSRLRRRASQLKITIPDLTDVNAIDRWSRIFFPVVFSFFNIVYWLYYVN
T1 sequence (P18507 40-475): as the sequence (P18507 40-475) above

For the compound `COc1ccc(CN2Cc3nc4c(-c5cccnc5OC)cccc4c(N)c3C2=O)cc1Cl` [9-amino-2-(3-chloro-4-methoxybenzyl)-5-(2-methoxypyridin-3-yl)-2,3-dihydro-1H-pyrrolo[3,4-b]quinolin-1-one], the “Relative Potentiation for GABAA1” value in test [1] is on record as 0.25. The compound further had a Ki in test [2] of 9.89 nM.
As for `COc1ccc(C)cc1-c1c(F)ccc2c(N)c3c(nc12)CN(C1CC1)C3=O` [9-amino-2-cyclopropyl-6-fluoro-5-(2-methoxy-5-methylphenyl)-2,3-dihydro-1H-pyrrolo[3,4-b]quinolin-1-one], the “Relative Potentiation for GABAA1” value in test [1] worked out at 0.23. Also, the Ki in test [2] is 7.65 nM.
In the case of `CCCN1Cc2nc3c(-c4ccc(OC)c(OC)c4OC)cccc3c(N)c2C1=O` [9-amino-2-propyl-5-(2,3,4-trimethoxyphenyl)-2,3-dihydro-1H-pyrrolo[3,4-b]quinolin-1-one], the “Relative Potentiation for GABAA1” value in test [1] came to 0.55. Also, the affinity in test [2], expressed as Ki, was 49.8 nM.
The corresponding values for `CCN1Cc2nc3c(-c4cc(C)ccc4OC)cccc3c(N)c2C1=O` [9-amino-2-ethyl-5-(2-methoxy-5-methylphenyl)-2,3-dihydro-1H-pyrrolo[3,4-b]quinolin-1-one] are 0.2 and 25.6 nM.
The corresponding values for `CCCN1Cc2nc3c(-c4cc(C(F)(F)F)ccc4F)cccc3c(N)c2C1=O` [9-amino-5-(2-fluoro-5-(trifluoromethyl)phenyl)-2-propyl-2,3-dihydro-1H-pyrrolo[3,4-b]quinolin-1-one] are 0.55 and 24 nM.
The corresponding values for `CCCN1Cc2nc3c(-c4ccc(C)cc4)cccc3c(N)c2C1=O` [9-amino-2-propyl-5-(4-methylphenyl)-2,3-dihydro-1H-pyrrolo[3,4-b]quinolin-1-one] are 0.37 and 80.7 nM.
For the compound `CCCN1Cc2nc3c(-c4cc(OC)c(OC)c(OC)c4)cccc3c(N)c2C1=O` [9-amino-2-propyl-5-(3,4,5-trimethoxyphenyl)-2,3-dihydro-1H-pyrrolo[3,4-b]quinolin-1-one], the “Relative Potentiation for GABAA1” value in test [1] came to 0.96. In test [2], this compound displayed a Ki of 89.8 nM.
On to `COc1ccc(C)cc1-c1cccc2c(N)c3c(nc12)CN(C1CC1)C3=O` [9-amino-2-cyclopropyl-5-(2-methoxy-5-methylphenyl)-2,3-dihydro-1H-pyrrolo[3,4-b]quinolin-1-one], for which, in test [1], the “Relative Potentiation for GABAA1” value amounted to 0.28. For the same compound, the Ki in test [2] worked out at 4.76 nM.
The corresponding values for `CCCN1Cc2nc3c(-c4ccccc4C(F)(F)F)cccc3c(N)c2C1=O` [9-amino-2-propyl-5-(2-(trifluoromethyl)phenyl)-2,3-dihydro-1H-pyrrolo[3,4-b]quinolin-1-one] are 0.48 and 16.6 nM.
Take `COc1ccc(CN2Cc3nc4c(-c5cc(F)ccc5C)cccc4c(N)c3C2=O)cc1` [9-amino-5-(5-fluoro-2-methylphenyl)-2-(4-methoxybenzyl)-2,3-dihydro-1H-pyrrolo[3,4-b]quinolin-1-one]: the “Relative Potentiation for GABAA1” value in test [1] came out at 0.22. The same compound showed a Ki in test [2] of 25.8 nM.
Consider `COc1ccc(CN2Cc3nc4c(-c5cc(F)ccc5OC)cccc4c(N)c3C2=O)cc1` [9-amino-5-(5-fluoro-2-methoxyphenyl)-2-(4-methoxybenzyl)-2,3-dihydro-1H-pyrrolo[3,4-b]quinolin-1-one], for which, in test [1], the “Relative Potentiation for GABAA1” value amounted to 0.39. In test [2], this compound came in with a Ki of 46.3 nM.
On the same counts, the results for `COc1ccc(CN2Cc3nc4c(-c5cccnc5OC)cccc4c(N)c3C2=O)cc1OC` [9-amino-2-(3,4-dimethoxybenzyl)-5-(2-methoxypyridin-3-yl)-2,3-dihydro-1H-pyrrolo[3,4-b]quinolin-1-one] are 0.12 and 2.3 nM.
On the same counts, the results for `CCCN1Cc2nc3c(-c4ccccc4)cccc3c(N)c2C1=O` [9-amino-5-phenyl-2-propyl-2,3-dihydro-1H-pyrrolo[3,4-b]quinolin-1-one] are 0.51 and 43.8 nM.
The corresponding values for `COc1ccc(C)cc1-c1cccc2c(N)c3c(nc12)CN(C1CCC1)C3=O` [9-amino-2-cyclobutyl-5-(2-methoxy-5-methylphenyl)-2,3-dihydro-1H-pyrrolo[3,4-b]quinolin-1-one] are 0.19 and 4.07 nM.
On to `CCCN1Cc2nc3c(-c4cncc(OC)c4)cccc3c(N)c2C1=O` [9-amino-5-(5-methoxypyridin-3-yl)-2-propyl-2,3-dihydro-1H-pyrrolo[3,4-b]quinolin-1-one], for which the “Relative Potentiation for GABAA1” value in test [1] was 0.23. The compound also yielded a Ki in test [2] of 63 nM.
On the same counts, the results for `COc1ccc(CN2Cc3nc4c(-c5ccc(OC)c(OC)c5)cccc4c(N)c3C2=O)cc1` are 0.61 and 47.7 nM.
The corresponding values for `CCCN1Cc2nc3c(-c4ccc(F)cc4F)cccc3c(N)c2C1=O` [9-amino-5-(2,4-difluorophenyl)-2-propyl-2,3-dihydro-1H-pyrrolo[3,4-b]quinolin-1-one] are 0.39 and 14.9 nM.
The corresponding values for `CCN1Cc2nc3c(-c4cc(C)cc(C)c4)cccc3c(N)c2C1=O` [9-amino-5-(3,5-dimethylphenyl)-2-ethyl-2,3-dihydro-1H-pyrrolo[3,4-b]quinolin-1-one] are 0.34 and 14.2 nM.
On to `CCCN1Cc2nc3c(-c4cc(Cl)cnc4OC)cccc3c(N)c2C1=O` [9-amino-5-(5-chloro-2-methoxypyridin-3-yl)-2-propyl-2,3-dihydro-1H-pyrrolo[3,4-b]quinolin-1-one], for which the “Relative Potentiation for GABAA1” value in test [1] stood at 0.49. In test [2], the inhibition constant Ki was 21.5 nM.
The corresponding values for `CCCN1Cc2nc3c(-c4cccc(OC)c4OC)cccc3c(N)c2C1=O` [9-amino-5-(2,3-dimethoxyphenyl)-2-propyl-2,3-dihydro-1H-pyrrolo[3,4-b]quinolin-1-one] are 0.3 and 24.5 nM.
The corresponding values for `COc1ccc(-c2cccc3c(N)c4c(nc23)CN(C2CC2)C4=O)c(C(F)(F)F)c1` [9-amino-2-cyclopropyl-5-(4-methoxy-2-(trifluoromethyl)phenyl)-2,3-dihydro-1H-pyrrolo[3,4-b]quinolin-1-one] are 0.5 and 31.9 nM.
On the same counts, the results for `Nc1c2c(nc3c(-c4cc(Cl)ccc4Cl)cccc13)CN(C1CCC1)C2=O` [9-amino-2-cyclobutyl-5-(2,5-dichlorophenyl)-2,3-dihydro-1H-pyrrolo[3,4-b]quinolin-1-one] are 0.16 and 3.15 nM.
As for `CCCN1Cc2nc3c(-c4ccccc4C)cccc3c(N)c2C1=O` [9-amino-2-propyl-5-(2-methylphenyl)-2,3-dihydro-1H-pyrrolo[3,4-b]quinolin-1-one], in test [1], the “Relative Potentiation for GABAA1” value turned out to be 0.35. In addition, in test [2], the Ki was found to be 5.53 nM.
The corresponding values for `COc1cccc(CN2Cc3nc4c(-c5cc(OC)ccc5OC)cccc4c(N)c3C2=O)c1` [9-amino-5-(2,5-dimethoxyphenyl)-2-(3-methoxybenzyl)-2,3-dihydro-1H-pyrrolo[3,4-b]quinolin-1-one] are 0.25 and 26.9 nM.
The corresponding values for `COc1ccc(CN2Cc3nc4c(-c5cc(F)cc(F)c5)cccc4c(N)c3C2=O)cc1OC` [9-amino-5-(3,5-difluorophenyl)-2-(3,4-dimethoxybenzyl)-2,3-dihydro-1H-pyrrolo[3,4-b]quinolin-1-one] are 0.24 and 15.3 nM.
